Assay results published in ChEMBL document CHEMBL1201862, “PubChem BioAssay data set” (2004).
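Tested at 5 concentrations; 48 h exposure; 96-well plates; endpoints linearly interpolated, else capped at highest concentration. The concentration for 50% growth inhibition is given as GI50.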 The source made the active and inactive calls. Rule as the data show it: active = GI50 up to about 1.1 µM and inactive = higher.

How the values were obtained:
Experiment in all cases: NCI tumour cell line growth inhibition, 48 h
[1] = system: 786-0
[2] = system: CAKI-1
[3] = system: HOP-92
[4] = system: HT-29
[5] = system: IGROV-1
[6] = system: KM12
[7] = system: LOX IMVI
[8] = system: MOLT-4
[9] = system: Malme-3M
[10] = system: NCI-H226
[11] = system: NCI-H460
[12] = system: NCI-H522
[13] = system: PC-3
[14] = system: SR
[15] = system: T47D
[16] = system: UACC-62
[17] = system: UO-31
[18] = system: OVCAR-3
[19] = system: SNB-75
[20] = system: SF-539

SMILES	GI50 [1]	GI50 [2]	GI50 [3]	GI50 [4]	GI50 [5]	GI50 [6]	GI50 [7]	GI50 [8]	GI50 [9]	GI50 [10]	GI50 [11]	GI50 [12]	GI50 [13]	GI50 [14]	GI50 [15]	GI50 [16]	GI50 [17]	GI50 [18]	GI50 [19]	GI50 [20]
CCOC(=O)CN1C(=O)c2c(NC(=O)C(=O)O)cccc2S1(=O)=O	> 100 µM (inactive)	> 100 µM (inactive)	> 100 µM (inactive)	> 100 µM (inactive)	> 100 µM (inactive)	> 100 µM (inactive)	> 100 µM (inactive)	> 100 µM (inactive)	> 100 µM (inactive)	> 100 µM (inactive)	> 100 µM (inactive)	> 100 µM (inactive)	> 100 µM (inactive)	> 100 µM (inactive)	> 100 µM (inactive)	> 100 µM (inactive)	> 100 µM (inactive)	–	–	–
O=C(/N=N/c1cc(Cl)ccc1Cl)NNc1cc(Cl)ccc1Cl	–	16 µM (inactive)	15.2 µM (inactive)	17.5 µM (inactive)	19 µM (inactive)	16.7 µM (inactive)	–	> 10 µM (inactive)	23.1 µM (inactive)	> 10 µM (inactive)	17.3 µM (inactive)	13.2 µM (inactive)	10.9 µM (inactive)	21.2 µM (inactive)	10.5 µM (inactive)	11.2 µM (inactive)	11.7 µM (inactive)	16.8 µM (inactive)	28.4 µM (inactive)	–
CNC(=O)Oc1ccc(-c2cn3cc(OC(=O)NC)ccc3n2)cc1	26.7 µM (inactive)	34.1 µM (inactive)	> 100 µM (inactive)	41.5 µM (inactive)	54 µM (inactive)	44 µM (inactive)	34.3 µM (inactive)	20.5 µM (inactive)	–	> 100 µM (inactive)	39.4 µM (inactive)	–	49.9 µM (inactive)	21 µM (inactive)	31.3 µM (inactive)	28.4 µM (inactive)	26.5 µM (inactive)	67.8 µM (inactive)	62.4 µM (inactive)	27.6 µM (inactive)
Cc1csc(-c2cn(C)c3c2C(=O)C(=N)C=C3O)n1	32.4 µM (inactive)	3.68 µM (inactive)	> 100 µM (inactive)	8.69 µM (inactive)	2.31 µM (inactive)	11.2 µM (inactive)	3.52 µM (inactive)	3.18 µM (inactive)	–	8.39 µM (inactive)	3.97 µM (inactive)	13.6 µM (inactive)	7.01 µM (inactive)	2.52 µM (inactive)	17.7 µM (inactive)	7.59 µM (inactive)	5.9 µM (inactive)	6.41 µM (inactive)	1.8 µM (inactive)	5.01 µM (inactive)
CSc1ccc(Nc2cc(=O)[nH]c(=O)[nH]2)cc1	> 100 µM (inactive)	> 100 µM (inactive)	> 100 µM (inactive)	> 100 µM (inactive)	–	–	> 100 µM (inactive)	> 100 µM (inactive)	> 100 µM (inactive)	> 100 µM (inactive)	> 100 µM (inactive)	> 100 µM (inactive)	> 100 µM (inactive)	> 100 µM (inactive)	> 100 µM (inactive)	> 100 µM (inactive)	> 100 µM (inactive)	> 100 µM (inactive)	–	> 100 µM (inactive)
O=C1/C(=C/c2ccc(Cl)cc2)CCC/C1=C\c1ccc(O)c(CN2CCCCC2)c1	15 µM (inactive)	18.9 µM (inactive)	18.5 µM (inactive)	3.54 µM (inactive)	15.5 µM (inactive)	4.51 µM (inactive)	13.1 µM (inactive)	24 µM (inactive)	21.4 µM (inactive)	16.1 µM (inactive)	19.5 µM (inactive)	–	8.91 µM (inactive)	3.78 µM (inactive)	19.5 µM (inactive)	16.1 µM (inactive)	16.3 µM (inactive)	24.1 µM (inactive)	19.1 µM (inactive)	21.8 µM (inactive)
Cn1c(-c2ccccc2)cc(-c2cccs2)c1-c1ccsc1	> 100 µM (inactive)	> 100 µM (inactive)	> 100 µM (inactive)	> 100 µM (inactive)	> 100 µM (inactive)	80.5 µM (inactive)	> 100 µM (inactive)	> 100 µM (inactive)	–	> 100 µM (inactive)	> 100 µM (inactive)	–	> 100 µM (inactive)	> 100 µM (inactive)	> 100 µM (inactive)	> 100 µM (inactive)	> 100 µM (inactive)	> 100 µM (inactive)	> 100 µM (inactive)	> 100 µM (inactive)
C/C=C(\C)[C@@H](O)C(=O)O[C@@H]1CC(C(C)(C)O)[C@](C)(CCC(=O)OC)[C@H]2[C@H](OC(=O)[C@H](O)[C@H](C)CC)C[C@]3(C)C(=CC[C@H]3[C@H]3CO[C@H](C=C(C)C)C3)[C@]12C (stereo partly drawn)	16 µM (inactive)	27.7 µM (inactive)	23.3 µM (inactive)	19 µM (inactive)	30.8 µM (inactive)	24.8 µM (inactive)	17.6 µM (inactive)	19.7 µM (inactive)	–	19.1 µM (inactive)	18.5 µM (inactive)	14.9 µM (inactive)	16.7 µM (inactive)	14.5 µM (inactive)	25.7 µM (inactive)	–	17.7 µM (inactive)	20.1 µM (inactive)	15.4 µM (inactive)	20.5 µM (inactive)
Cc1ccc(/C=C2\CN(C)CC3=C2OC(N)=C(C#N)C3c2ccc(C)cc2)cc1 (stereo not drawn)	15.6 µM (inactive)	19.5 µM (inactive)	1.05 µM (active)	16.1 µM (inactive)	7.5 µM (inactive)	15.5 µM (inactive)	13.5 µM (inactive)	7.76 µM (inactive)	20.3 µM (inactive)	22.2 µM (inactive)	17.9 µM (inactive)	12.2 µM (inactive)	15.7 µM (inactive)	19.9 µM (inactive)	7.11 µM (inactive)	18.4 µM (inactive)	17.6 µM (inactive)	12.1 µM (inactive)	–	41.7 µM (inactive)
CCOC(C)O[C@H]1C(=O)OCC1(C)C (stereo partly drawn)	> 100 µM (inactive)	> 100 µM (inactive)	> 100 µM (inactive)	> 100 µM (inactive)	> 100 µM (inactive)	> 100 µM (inactive)	> 100 µM (inactive)	34.9 µM (inactive)	> 100 µM (inactive)	> 100 µM (inactive)	> 100 µM (inactive)	–	> 100 µM (inactive)	> 100 µM (inactive)	> 100 µM (inactive)	> 100 µM (inactive)	> 100 µM (inactive)	> 100 µM (inactive)	> 100 µM (inactive)	> 100 µM (inactive)
O=C1c2ccccc2-c2nc(/C=C/c3ccccc3)cc3c2c1nc1ccccc13	30.5 µM (inactive)	26 µM (inactive)	26.5 µM (inactive)	30.8 µM (inactive)	20.4 µM (inactive)	18.5 µM (inactive)	–	23.6 µM (inactive)	–	69.2 µM (inactive)	–	10.3 µM (inactive)	4.56 µM (inactive)	1.8 µM (inactive)	48.8 µM (inactive)	9.82 µM (inactive)	29.6 µM (inactive)	0.265 µM (active)	17.8 µM (inactive)	27.4 µM (inactive)
